According to patent US8217071B2, “Use of inhibitors of the degradation of p27, in particular Argyrin and derivatives thereof, for the treatment of proliferative diseases” (Helmholtz Zentrum für Infektionsforschung GmbH, priority 2007, dated 2012):
Numbered stars: 1 amine (or outer) side, 2 acyl side, 3 side chain; on linkers, the order of the positions; unused ones are H or OH. Square brackets hold non-standard residues; d marks the D form. Peptide text beside a SMILES is read from it. dAla(ψthiazole) = C[C@@H](N[*:1])c1nc(C(=O)[*:2])cs1; Trp(4-OMe) = COc1cccc2[nH]cc(C[C@H](N)C(=O)O)c12; Dha = C=C(N)C(=O)O; Sar = CNCC(=O)O

What was measured:
[1] = test system: CaCo colon carcinoma cell line; experiment: Flow cytometry cell cycle / sub-G1 analysis; type: cell-based, human; conditions: at ranges of IC50; sub G1 phase fraction
Description: (§1) The expression levels of p27^kip1 were determined at the indicated timepoints by western blotting and normalized against actin expression which was used as an internal control.
(§2) MTT assays were done as previously described (Sasse, F. et al. Argyrins, immunosuppressive cyclic peptides from myxobacteria. I. Production, isolation, physico-chemical and biological properties. J Antibiot (Tokyo) 55, 543-51 (2002)). TUNEL staining of tissue sections was performed on 10 micrometer sections which were deparafinised and treated as recommended by the manufacturer. (In Situ Cell Death Detection Kit, Fluorescein; ROCHE, Cat #11 684 795 910). Flow cytometric analysis of cultured cells was done using a Becton Dickinson fluorescence cytometer as previously described (Malek, N. P. et al. A mouse knock-in model exposes sequential proteolytic pathways that regulate p27^Kip1 in G1 and S phase. Nature 413, 323-7 (2001)). Analysis of the distribution of cells in the cell cycle and the sub-G1 fraction was done using Cell Quest software. A histone-associated-DNA-fragments ELISA was used to determine the number of apoptotic cells according to manufacturers instructions (Roche #11 774425001).

HeLa (cervix carcinoma) = experiment: Flow cytometry cell cycle / sub-G1 analysis; type: cell-based, human; conditions: at ranges of IC50; sub G1 phase fraction
Description: as §1, §2

[2] = test system: SW480 colon carcinoma cell line; experiment: Flow cytometry cell cycle / sub-G1 analysis; type: cell-based, human; conditions: at ranges of IC50; sub G1 phase fraction
Description: as §1, §2

A549 (lung cancer) = experiment: Flow cytometry cell cycle / sub-G1 analysis; type: cell-based, human; conditions: at ranges of IC50
Description: as §1, §2

[3] = test system: HCT116 colon carcinoma cells; experiment: Flow cytometry cell cycle / sub-G1 analysis; type: cell-based, human; conditions: at ranges of IC50
Description: as §1, §2

MCF7 (breast cancer) = experiment: Flow cytometry cell cycle / sub-G1 analysis; type: cell-based, human; conditions: at ranges of IC50; sub G1 phase fraction
Description: as §1, §2

[4] = test system: HCT116 colon carcinoma xenotransplant tumours; experiment: HCT116 xenotransplant tumours in nu/nu mice; type: in vivo, mouse; conditions: HCT116 derived tumor-xenografts
Description: Treatment with Argyrin A or bortezomib was started when these tumours reached a volume of 200 mm3. […] (n=8 Argyrin A, n=8 Bortezomib, n=6 PBS/EtOH) b) The pictures show the macroscopic appearance of a xenotransplant tumour after 10 days of treatment with Argyrin A. Note the large necrotic centre of the explanted tumour. c) After a single injection of Argyrin A (0.15 mg/kg bodyweight) or bortezomib (1.0 mg/kg bodyweight) tumours were explanted at the indicated time points and blood vessels in the tumour tissue were co-stained for CD31 and p27. […] Note the swelling of the endothelial cell (“E”) and the occlusion of the lumen (“L”) by erythrocytes after 90 minutes of Argyrin A treatment. The arrow marks the detachment of endothelial cells after 48 h of Argyrin A treatment. […] Tube length (f) and blood vessel like […] structures were determined using photographs of HUVEC cultures. The micrographs show representative examples of HUVEC cultures under the indicated conditions.
1×10^7 SW480 cells or HCT116 cells (in 100 microliters DMEM medium and 100 microliters matrigel) were s.c. injected into the flanks of NMRI nu/nu mice. Tumours grew for approx. 18 days until they reached appropriate size (200 mm3). Tumour size was measured with a digital calliper and calculated with the help of the following formula: (Length×width2)*π/6. […]

[5] = test system: p27^kip1-GFP fusion protein in HeLa cells; experiment: High throughput screen for p27 stabilizing substances; type: cell-based, human; conditions: 70 nM
Source text: To identify substances which lead to an increase in the expression levels of p27^kip1 the inventors generated a cell based high throughput assay system (see materials and methods for details). […] As shown by flow cytometry, Argyrin A exerted two different cellular phenotypes at ranges of IC50. […] The apoptosis inducing activity of Argyrin A was confirmed by measuring DNA fragmentation using a histone fragmentation ELISA (FIG. 5B).
A cellular high throughput screen for p27 stabilizing compounds was established by stably introducing a DNA plasmid (EGFP-N1, Clontech) which allows the expression of p27^kip1-GFP fusion protein in HeLa cells. p27-GFP expressing cells were selected with neomycin and several independent clones were subcultured. HeLa p27-GFP cells were seeded in 384 well plates (Corning) and incubated with a set of highly diverse natural products (part of the Helmholtz Center for Infection Research myxobacterial metabolite collection) at a concentration of 70 nM. GFP emission was determined by fluorometric measurements using a Victor 1420 multilabel counter (Perkin Elmer) at 3 h, 24 h, 48 h and 60 h after the start of treatment. The proteasome inhibitor MG132 was used as a positive control.

p53, p21, BAX and NfκB = experiment: Accumulation of proteasome substrates by western blotting; type: cell-based, human; conditions: SW480 and HCT116 cell lines
Description: as §1
Immunohistochemical staining of mouse tumour tissue, western Blotting and immunofluorescence experiments were done as previously described (Timmerbeul, I. et al. Testing the importance of p27 degradation by the SCFskp2 pathway in murine models of lung and colon cancer. Proc Natl Acad Sci USA 103, 14009-14 (2006). Kossatz, U. et al. C-terminal phosphorylation controls the stability and function of p27^kip1. Embo J 25, 5159-70 (2006).). The following antibodies were used: p27 (Cat. No. K25020-150; Transduction Labs), p21 (N20; Santa Cruz), p53 (FL-393; Santa Cruz), NfKB (C-20; Santa Cruz), Bax (P-19; Santa Cruz), Alexa fluor 488 (# A11001; Invitrogen), 20S-proteasome subunit beta 2 (Z) (PW9300; Bio-mol, for human cells), 20S-proteasome subunit beta 2 (Z) (PW8145; BIO TREND, for mouse cells); 20S proteasome subunit beta 1(Y) (PW8140; BIO TREND), 20S proteasome subunit beta 5 (PW8895; BIO TREND); PECAM Antibody clone MEC 13.3 (#550274; BD Pharmingen).

**Q.** With `C=C1NC(=O)[C@@H](C)NC(=O)CNC(=O)[C@H](Cc2c[nH]c3cccc(OC)c23)NC(=O)[C@H](Cc2c[nH]c3ccccc23)NC(=O)c2csc(n2)[C@@H](C)NC(=O)CN(C)C1=O` [Argyrin A] (cyclo(W[Trp(4-OMe)]G[dA][Dha][Sar][dAla(ψthiazole)])) as the molecule, how does the cellular phenotype [1] read?
**A.** underwent apoptosis

**Q.** And the cellular phenotype (HeLa (cervix carcinoma))?
**A.** underwent apoptosis

**Q.** And the cellular phenotype [2]?
**A.** underwent apoptosis

**Q.** What about the cellular phenotype (A549 (lung cancer)) of the same molecule?
**A.** stopped to proliferate

**Q.** And the cellular phenotype [3]?
**A.** stopped to proliferate

**Q.** And the cellular phenotype (MCF7 (breast cancer))?
**A.** underwent apoptosis

**Q.** And the tumour volume [4]?
**A.** significant reduction

**Q.** And the “increase in fluorescence (p27-GFP)” value [5]?
**A.** strongest increase in fluorescence

**Q.** And the “levels of proteasome substrates p53, p21, BAX and NfκB” value (p53, p21, BAX and NfκB)?
**A.** accumulated
